The results in this text go back to patent publication US7872002B2, “Therapeutic pyrazoloquinoline derivatives” (Helicon Therapeutics, Inc., priority 2007, dated 2011).

For orientation: pIC50 means −log10 of the IC50, conventionally taken in molar units.

This test addresses GABAA central benzodiazepine receptor. Kind of test: Benzodiazepine Binding Assay ((3H)-flunitrazepam, rat whole brain except cerebellum). Particulars: read-out: BZ binding assay (IC50); 1 nM (3H)-flunitrazepam, 60 minutes at 25° C., pH 7.4; with or without 30 μM GABA.

The structures appear in SMILES notation. pIC50: −log10 of the molar value.

Regarding `O=c1c2c[nH]c3c(N4CCOCC4)cc(N4CCOCC4)cc3c-2nn1-c1ccccc1` [Compound 58a, 6,8-Bis(morpholin-4-yl)-2-phenyl-2,5-dihydro-pyrazolo[4,3-c]quinolin-3-one], the pIC50 is 6.00 to 9.00.
As for `CC(C)N1CCN(c2cc(N3CCN(C(C)C)CC3)c3[nH]cc4c(=O)n(-c5ccccc5)nc-4c3c2)CC1` [Compound 58b, 6,8-Bis(4-iso-propylpiperazin-1-yl)-2-phenyl-2,5-dihydro-pyrazolo[4,3-c]quinolin-3-one], the pIC50 is 6.00 to 9.00.
